The values below come from a melting point compilation (Tetko et al.).

Compound `Cc1cc(S(C)(=O)=O)c(C)c(S(=O)(=O)Cl)c1` came in with a melting point of 122 to 124 °C. In the case of `Cc1cccc(C2(C(=O)O)CCCCC2)c1` it was 141 to 143 °C; in that of `CC(C#N)NC(=O)OC(C)(C)C` (configuration not stated), 94 to 96 °C.

In turn, `Cc1c(NS(=O)(=O)c2ccc(Cl)c([N+](=O)[O-])c2)c(=O)n(-c2ccccc2)n1C` displayed a melting point of 227 to 229 °C. In the case of `N#CCc1c[nH]c2ccc(Br)cc12` it was 103 to 105 °C. For the compound `COc1ccc(N)c(OC)n1`, the melting point was in the range of 210 to 212 °C.

As for `O=C(O)CNC(=O)c1ccc(C(=O)NCC(=O)O)cc1`, the melting point was in the range of 261 to 263 °C. In the case of `CCCc1ccc(N)c(C(=O)O)c1`, the melting point lay within 116 to 118 °C. In the case of `CCOc1ccccc1C=NO` it was 64 to 66 °C. Take `Cc1c(C(=O)O)oc2ccc(Cl)cc12`: the melting point was 255 to 257 °C. Under `CC(C)(CO)N1C(=O)c2ccccc2C1=O` stands 65 to 67 °C; under `Cc1cc(CN)cc(C)c1O`, 99 to 101 °C. Turning to `Cc1cc(C=O)c(C)n1CC#N`, the melting point was in the range of 122 to 124 °C. In the case of `CNS(=O)(=O)c1cc(N)ccc1C` it was 133 to 137 °C; in that of `Cc1nc(-c2ccc(O)cc2)cs1`, 210 to 212 °C. Under `O=C(O)c1cn(-c2ccc(C(F)(F)F)cn2)nn1` stands 134 to 136 °C; under `NC(=S)Cc1ccccc1F`, 92 to 94 °C; under `CS(=O)(=O)c1ccc(Cl)c(NC(=O)CCl)c1`, 148 to 149 °C.

For the compound `O=C(O)C1CCN(Cc2ccc(Cl)s2)CC1`, the melting point is 173 to 175 °C. In the case of `CC(=O)Nc1ccc(NC(=O)CC#N)cc1` it was 305 to 307 °C; in that of `N#Cc1cccnc1N1CCC(C(N)=O)CC1`, 177 to 179 °C. Under `O=C(CCl)Nc1cc(-n2cnnn2)ccc1F` stands 185 to 187 °C; under `CC(C)(C)OC(=O)NC1CCN(c2ccc(C#N)cn2)CC1`, 188 to 190 °C. Under `CC(C)(C)OC(=O)NC(CCC(=O)O)c1ccccc1` (configuration not stated) stands 151 to 153 °C; under `Cc1noc(C)c1COc1ccc(C=O)cc1`, 107 to 109 °C. For `COc1ccc(NC(=O)C(=O)O)cc1`, the melting point was in the range of 206 to 208 °C.

In the case of `COc1ccc(C(=O)Nc2ccccc2C(=O)O)cc1`, the melting point is 184 to 186 °C.

Take `C=CS(=O)(=O)Oc1ccccc1`: the melting point was 39 to 42 °C. The compound `Cc1cc(Cl)c2cc(Cl)cc(C)c2n1` came in with a melting point of 122 to 124 °C. In the case of `O=Cc1[nH]nnc1-c1ccccc1`, the melting point lay within 169 to 171 °C. Under `CN1CCCC1C(=O)O` (configuration not stated) stands 111 to 113 °C.

The compound `O=C(O)CN1C(=O)c2cccnc2C1=O` returned a melting point of 239 to 241 °C. Under `Fc1cccc2c1CCCN2` stands 45 to 47 °C.

On to `Nc1nnc(-c2cccc(Br)c2)o1`, for which the melting point lay within 209 to 211 °C.

Compound `CNS(=O)(=O)c1ccc(-c2cccs2)c(C(=O)O)c1` registered a melting point of 164 to 166 °C. Under `CC(C)(C)c1cnc(S)s1` stands 115 to 117 °C; under `Cc1cnc2c(C)cnn2c1N`, 239 to 241 °C. In the case of `CCC(Nc1ccccc1)C(N)=O` (configuration not stated) it was 122 to 124 °C. In the case of `O=C(O)c1nc2ncc(Br)cn2n1` it was 199 to 201 °C; in that of `O=C(CCl)NCc1ccccc1OC(F)(F)F`, 66 to 68 °C.

`O=C(CCl)N1c2ccccc2CCc2ccccc21`: the melting point is 96 to 98 °C. In the case of `CCn1c(CCC(=O)O)nc2cc(S(N)(=O)=O)ccc21` it was 263 to 265 °C; in that of `O=C(O)COc1ccc(F)cc1Cl`, 140 to 142 °C. In the case of `COC(=O)COc1ccc(N)cc1Cl`, the melting point was in the range of 66 to 68 °C.

For the compound `Cc1ccc2[nH]c(=O)n3nc(C4CC4)nc3c2c1`, the melting point fell in the range of 260 to 262 °C. Under `CC(C)c1ccc(C2CC2C(=O)O)cc1` (configuration not stated) stands 67 to 69 °C; under `O=C(O)Cc1coc2cc(F)ccc12`, 103 to 105 °C; under `COC(=O)c1ccc(S)cc1`, 53 to 55 °C. As to `Cc1ccc(/C=C/S(=O)(=O)Cl)cc1`, the melting point lay in the range of 111 to 113 °C. In the case of `COC(=O)C(C#N)=NO` it was 122 to 124 °C. Take `Cc1sc2ccc(Cl)cc2c1S(=O)(=O)Cl`: the melting point is 148 to 150 °C.

For the compound `OCc1nc2ccccc2o1`, the melting point fell in the range of 59 to 61 °C. In the case of `COC(=O)c1cc(S(=O)(=O)Cl)c(Br)cc1Cl` it was 135 to 137 °C; in that of `CNc1ncnc2ccsc12`, 179 to 181 °C; in that of `CC(=O)N(c1nc(CCl)cs1)C1CC1`, 56 to 58 °C. In turn, `[N-]=[N+]=NCCN1C(=O)C(=O)c2ccccc21` registered a melting point of 71 to 73 °C.

The compound `CC1=NN(C2CCS(=O)(=O)C2)C(=O)C1` (configuration not stated) gave a melting point of 185 to 187 °C. For `CC(C)(C)Nc1nccs1`, the melting point lay in the range of 83 to 85 °C. Under `COC(OC)(OC)c1cc2ccccc2c(=O)[nH]1` stands 131 to 133 °C; under `CS(=O)(=O)Nc1ccc(F)cc1C(=O)O`, 204 to 206 °C; under `O=C1c2ccncc2C(=O)N1CCO`, 106 to 108 °C. With `Cc1ccc(S(=O)(=O)Cl)c(C)c1OCC(=O)O`, the melting point is 144 to 146 °C.

The compound `O=C(O)c1sccc1S(=O)(=O)N1CCC(CO)CC1` showed a melting point of 143 to 145 °C. For `CC(Cl)C(=O)N1c2ccccc2CC1C` (configuration not stated), the melting point lay within 135 to 137 °C. Under `Cc1nnc(C(Cl)(Cl)Cl)o1` stands 47 to 49 °C.

The compound `CCN(CC)S(=O)(=O)c1ccc(OC(C)C)c(N)c1` gave a melting point of 89 to 91 °C. In turn, `Cc1cc(CO)nc(N2CCCCC2)n1` came in with a melting point of 51 to 53 °C. In the case of `CC1(c2ccc(Br)cc2)CC(=O)NC1=O` (configuration not stated) it was 144 to 146 °C. In turn, `O=C(O)c1ccc(-c2nnc(-c3ccccc3)o2)cc1` gave a melting point of 299 to 301 °C. In the case of `CC(c1ccco1)N(C(=O)CCl)c1ccccn1` (configuration not stated) it was 87 to 89 °C; in that of `Cc1ccc(-c2cc(C(=O)O)c3c(C)noc3n2)c(C)c1`, 222 to 224 °C; in that of `COC(=O)c1c(N)sc2c1CCCCC2`, 94 to 98 °C. `Clc1cc(N2CCCC2)ncn1` had a melting point of 93 to 95 °C.

The compound `CCCCC1NC(=O)NC1=O` (configuration not stated) had a melting point of 139 to 141 °C. In the case of `Cc1ccccc1-c1nnc(Cl)n1-c1ccccc1C` it was 200 to 202 °C. The compound `Fc1ccccc1-c1nc(CCl)cs1` returned a melting point of 64 to 66 °C. Under `O=C1NC(=O)N(C2CCS(=O)(=O)C2)C1=O` (configuration not stated) stands 244 to 246 °C. In the case of `O=C(O)C1CCCN(S(=O)(=O)Cc2ccccc2)C1` (configuration not stated) it was 128 to 130 °C.

With `O=C(O)C(Cc1ccccc1)n1cnnn1` (configuration not stated), the melting point fell in the range of 162 to 164 °C. Under `O=C(O)c1ccc(Sc2ccccn2)cc1` stands 179 to 181 °C. In the case of `COC1(OC)CC(CO)(CO)C1` it was 48 to 50 °C; in that of `O=Cc1c(Cl)nc(Cl)n1-c1ccccc1`, 133 to 135 °C; in that of `O=C(O)CCC(=O)c1ccc2c(c1)CCC2`, 123 to 125 °C.

Compound `Nc1cccc(NC(=O)CCn2ccnc2)c1` showed a melting point of 125 to 127 °C.

With `O=C(O)CSc1nnc(-c2ccc(F)cc2)o1`, the melting point is 140 to 142 °C.

Regarding `Cc1ncc([N+](=O)[O-])cc1C(=O)O`, the melting point was 210 to 214 °C. In the case of `Cc1cc(C)n2nc(CCCO)nc2n1` it was 89 to 91 °C; in that of `Cc1nn(C)c(Oc2cccnc2)c1C=O`, 91 to 93 °C; in that of `N#CSCC(=O)c1ccccc1C(F)(F)F`, 49 to 51 °C.

The compound `Cc1nn(C)c(Cl)c1CO` had a melting point of 92 to 94 °C. Under `Cc1cnn(Cc2ccc(N)cc2)c1` stands 78 to 80 °C; under `Sc1nc2cc(Cl)cc(Cl)c2[nH]1`, 376 to 378 °C. Under `O=C1CC2(CCCCC2)C(=O)O1` stands 54 to 58 °C.

In the case of `CC(C)(C)CNC(N)=O`, the melting point fell in the range of 148 to 150 °C. Under `Cc1ccc(-c2ccc(C=O)s2)cc1` stands 87 to 89 °C; under `Cc1ccc(SC2CCCC2)c(C(=O)O)c1`, 130 to 132 °C; under `O=Cc1ccc(Br)nc1`, 104 to 110 °C. Take `NC(=S)Nc1ccc(Cl)nc1`: the melting point fell in the range of 182 to 184 °C. In the case of `CC(C)(C)OC(=O)N1CCN(C(=O)CN)CC1` it was 95 to 97 °C; in that of `CC(=O)N1CCN(c2ccccc2C=O)CC1`, 86 to 88 °C.

On to `CC(O)c1ccc(CN)cc1` (configuration not stated), for which the melting point fell in the range of 87 to 89 °C. Under `CN(C)c1ccc(C(N)=NO)cc1` stands 169 to 171 °C; under `O=C(O)C1CCN(c2cncc3nnnn23)CC1`, 159 to 161 °C; under `Cn1nc(C(C)(C)C)cc1NC(=O)CCl`, 138 to 140 °C.

`Nc1cccc(Oc2ncc(Br)cn2)c1`: the melting point lay within 92 to 94 °C. Under `CS(=O)(=O)Nc1cc(C(=O)O)ccc1F` stands 250 to 252 °C; under `CC(=O)c1nc2ccccc2n1C`, 67 to 69 °C. Under `O=C(O)CSc1nnc(-c2ccccc2)o1` stands 169 to 171 °C; under `Cc1cccc(-c2nnc(CO)o2)c1`, 82 to 84 °C; under `O=C(CC1(C(=O)O)CCCC1)N1CCOCC1`, 150 to 152 °C.

As to `NS(=O)(=O)c1ccc(SCC(=O)O)cc1`, the melting point was in the range of 157 to 159 °C. The compound `O=C(Nc1cnccn1)c1ccc(Br)cc1` returned a melting point of 195 to 197 °C.

Turning to `Cc1ccc(C(=O)NC(C(=O)O)C(C)C)cc1` (configuration not stated), the melting point fell in the range of 155 to 157 °C. In the case of `Cc1ccccc1-c1noc(S)n1` it was 150 to 152 °C; in that of `NC(=O)CS(=O)(=O)c1ccc(C(=O)O)cc1`, 255 to 257 °C; in that of `CC(C)Oc1ccc(Cl)c(C(=O)O)n1`, 70 to 72 °C. In the case of `O=C1CCCCC1N1CCS(=O)(=O)CC1` (configuration not stated) it was 105 to 107 °C; in that of `COC(=O)c1ccn2cncc2c1`, 93 to 95 °C; in that of `CC(C)(C)OC(=O)N1CCC(C)(C(=O)O)CC1`, 149 to 151 °C. In the case of `CC(C)C(=O)NC(C)C(=O)O` (configuration not stated) it was 154 to 156 °C. The compound `N#CC(=Cc1ccco1)C(=O)O` gave a melting point of 227 to 229 °C. In the case of `Sc1nnc(N2CCCCC2)s1` it was 165 to 167 °C.
